IC90 data for 22 compounds are collected here from patent publication US11390604B2 (Hoffmann-La Roche Inc., priority 2019, dated 2022).

By IC90 is commonly meant the concentration needed for an effect of 90%.

SMILES strings stand for the structures. Counter-ions that a name gives are not always drawn.

The test system of this experiment is Acinetobacter baumannii ATCC 17961. Kind of experiment: Antimicrobial susceptibility testing: 90% growth inhibitory concentration (IC90) determination. It is filed as cell-based. To be noted: ATCC17961, Acinetobacter baumannii ATCC 17961, Iso-Sensitest broth, read-out: ATCC 17961 IC90. In outline:
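Broth microdilution in Iso-Sensitest medium, twofold series (e.g. 50 to 0.097 μM final), ~5×10^5 CFU/ml inoculum, 35±2 °C. OD600 read every 20 min over 16 h. IC90 derived from growth inhibition during logarithmic phase.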

Consider `Cn1c(-c2cn(CC#N)nc2C(F)(F)F)cnc1C(=O)Nc1ccc(C(=O)N[C@H]2C[C@@H](NC(=O)N3CC4CC3CN4)C2)c(Cl)c1` (stereo partly shown) [Example 328, N-[3-[[2-chloro-4-[[5-[1-(cyanomethyl)-3-(trifluoromethyl)pyrazol-4-yl]-1-methyl-imidazole-2-carbonyl]amino]benzoyl]amino]cyclobutyl]-2,5-diazabicyclo[2.2.1]heptane-2-carboxamide; formic acid], for which the concentration for an effect of 90% (IC90) was 420 nM.

On to `CCn1cc(-c2cnc(C(=O)Nc3ccc(C(=O)N4CCN(C(=O)CN)CC4)c(Cl)c3)n2C)c(C(F)(F)F)n1` [Example 330, N-[4-[4-(2-aminoacetyl)piperazine-1-carbonyl]-3-chlorophenyl]-5-[1-ethyl-3-(trifluoromethyl)pyrazol-4-yl]-1-methylimidazole-2-carboxamide;hydrochloride], for which the IC90 turned out to be 421 nM.

On to `Cn1c(-c2cn(CCOC(F)(F)F)nc2C(F)(F)F)cnc1C(=O)Nc1ccc(C(=O)N2CCN(C(=O)C3CCNCC3)CC2)c(Cl)c1` [Example 332, N-(3-chloro-4-(4-(piperidine-4-carbonyl)piperazine-1-carbonyl)phenyl)-1-methyl-5-(1-(2-(trifluoromethoxy)ethyl)-3-(trifluoromethyl)-1H-pyrazol-4-yl)-1H-imidazole-2-carboxamide hydrochloride], for which the IC90 amounted to 422 nM.

Regarding `Cn1c(-c2cn(C3CC3)nc2C(F)(F)F)cnc1C(=O)Nc1ccc(C(=O)N[C@H]2[C@@H]3CN(C(=O)N[C@@H]4CCC[C@@H]4N)C[C@@H]32)c(Cl)c1` [Example 334, exo-N-((1R,2S)-2-aminocyclopentyl)-6-(2-chloro-4-(5-(1-cyclopropyl-3-(trifluoromethyl)-1H-pyrazol-4-yl)-1-methyl-1H-imidazole-2-carboxamido)benzamido)-3-azabicyclo[3.1.0]hexane-3-carboxamide formate], the concentration for an effect of 90% (IC90) came to 423 nM.

As for `Cn1c(-c2cn(CC3CCC3)nc2C(F)(F)F)cnc1C(=O)Nc1ccc(C(=O)N2CCN(C(=O)[C@@H]3C[C@@H](O)CN3)CC2)c(Cl)c1` [Example 335, N-(3-chloro-4-(4-((2S,4R)-4-hydroxypyrrolidine-2-carbonyl)piperazine-1-carbonyl)phenyl)-5-(1-(cyclobutylmethyl)-3-(trifluoromethyl)-1H-pyrazol-4-yl)-1-methyl-1H-imidazole-2-carboxamide bis(2,2,2-trifluoroacetate)], the IC90 is 426 nM.

As for `Cn1c(-c2cn(CC(F)F)nc2C(F)(F)F)cnc1C(=O)Nc1ccc(C(=O)N2CCNCC2)c(Cl)c1` [Example 336, N-(3-chloro-4-(piperazine-1-carbonyl)phenyl)-5-(1-(2,2-difluoroethyl)-3-(trifluoromethyl)-1H-pyrazol-4-yl)-1-methyl-1H-imidazole-2-carboxamide formate], the IC90 turned out to be 426 nM.

`Cn1c(-c2cn(C3CC3)nc2C(F)(F)F)cnc1C(=O)Nc1ccc(C(=O)N2CCN(S(=O)(=O)N3CCNCC3)CC2)c(Cl)c1` [Example 338, N-(3-chloro-4-(4-(piperazin-1-ylsulfonyl)piperazine-1-carbonyl)phenyl)-5-(1-cyclopropyl-3-(trifluoromethyl)-1H-pyrazol-4-yl)-1-methyl-1H-imidazole-2-carboxamide formate]: the IC90 was 427 nM.

As for `Cn1c(-c2cn(C3CC3)nc2C(F)(F)F)cnc1C(=O)Nc1ccc(C(=O)N2CCC(C(=O)N[C@H]3C[C@H](N)C3)CC2)c(Cl)c1` [Example 339, N-(3-aminocyclobutyl)-1-[2-chloro-4-[[5-[1-cyclopropyl-3-(trifluoromethyl)pyrazol-4-yl]-1-methyl-imidazole-2-carbonyl]amino]benzoyl]piperi-dine-4-carboxamide; formic acid], the 90% effect concentration (IC90) was 427 nM.

Turning to `CCc1cc(NC(=O)c2ncc(-c3cn(CC#N)nc3C(F)(F)F)n2C)ccc1C(=O)N1CCN(C(=O)[C@H]2C[C@H](N)C2)CC1` [Example 340, N-[4-[4-(3-aminocyclobutanecarbonyl)piper-azine-1-carbonyl]-3-ethyl-phenyl]-5-[1-(cyanomethyl)-3-(trifluoromethyl)pyrazol-4-yl]-1-methyl-imidazole-2-carboxamide; formic acid], the IC90 was determined as 428 nM.

Take `Cn1c(-c2cn(C3CC3(F)F)nc2C(F)(F)F)cnc1C(=O)Nc1ccc(C(=O)NC2CNCC2O)c(Cl)c1` (stereo not shown) [Example 341, N-(3-chloro-4-((4-hydroxypyrrolidin-3-yl)carbamoyl)phenyl)-5-(1-(2,2-difluorocyclopropyl)-3-(trifluoromethyl)-1H-pyrazol-4-yl)-1-methyl-1H-imidazole-2-carboxamide formate]: the IC90 is 430 nM.

Regarding `C#CCn1cc(-c2cnc(C(=O)Nc3ccc(S(C)(=O)=NCCCN)c(C)c3)n2C)c(C(F)(F)F)n1` (stereo not shown) [Example 342, N-[4-[N-(3-aminopropyl)-S-methyl-sulfonimidoyl]-3-methyl-phenyl]-1-methyl-5-[1-prop-2-ynyl-3-(trifluoromethyl)pyrazol-4-yl]imidazole-2-carboxamide; formic acid], the IC90 worked out at 442 nM.

For the compound `Cn1c(-c2cn(CC#N)nc2C(F)(F)F)cnc1C(=O)Nc1ccc(C(=O)N2CCN(C(=O)NCC3(O)CNC3)CC2)c(Cl)c1` [Example 343, 4-[2-chloro-4-[[5-[1-(cyanomethyl)-3-(trifluoromethyl)pyrazol-4-yl]-1-methyl-imidazole-2-carbonyl]amino]benzoyl]-N-[(3-hydroxyazetidin-3-yl)methyl]piperazine-1-carboxamide; formic acid], the IC90 was found to be 442 nM.

Regarding `Cn1c(-c2cn(C3CC3(F)F)nc2C(F)(F)F)cnc1C(=O)Nc1ccc(C(=O)NC2(C)CCNCC2)c(Cl)c1` (stereo not shown) [Example 344, N-(3-chloro-4-((4-methylpiperidin-4-yl)carbamoyl)phenyl)-5-(1-(2,2-difluorocyclopropyl)-3-(trifluoromethyl)-1H-pyrazol-4-yl)-1-methyl-1H-imidazole-2-carboxamide formate], the IC90 was 443 nM.

For the compound `Cn1c(-c2cn(CC#N)nc2C(F)(F)F)cnc1C(=O)Nc1ccc(C(=O)NCCCCN)c(Cl)c1` [Example 345, N-(4-((4-aminobutyl)carbamoyl)-3-chlorophenyl)-5-(1-(cyanomethyl)-3-(trifluoromethyl)-1H-pyrazol-4-yl)-1-methyl-1H-imidazole-2-carboxamide tris(2,2,2-trifluoroacetate)], the 90% effect concentration (IC90) was found to be 444 nM.

For `Cn1c(-c2cn(C3CC3)nc2C(F)(F)F)cnc1C(=O)Nc1ccc(C(=O)N2CCN(C(=O)[C@H]3CCN3)CC2)c(Cl)c1` [Example 348, (R)-N-(4-(4-(azetidine-2-carbonyl)piperazine-1-carbonyl)-3-chlorophenyl)-5-(1-cyclopropyl-3-(trifluoromethyl)-1H-pyrazol-4-yl)-1-methyl-1H-imidazole-2-carboxamide hydrochloride], the IC90 came out at 447 nM.

For the compound `Cn1c(-c2cn(C3CC3)nc2C(F)(F)F)cnc1C(=O)Nc1ccc(C(=O)N2CCN(C(=O)N3CC[C@@H](N)C3)CC2)c(Cl)c1` [Example 349, (R)-N-(4-(4-(3-aminopyrrolidine-1-carbonyl)piperazine-1-carbonyl)-3-chlorophenyl)-5-(1-cyclopropyl-3-(trifluoromethyl)-1H-pyrazol-4-yl)-1-methyl-1H-imidazole-2-carboxamide formate], the IC90 stood at 449 nM.

Turning to `Cn1c(-c2cn(CC#N)nc2C(F)(F)F)cnc1C(=O)Nc1ccc(C(=O)N[C@H]2CC[C@@H](N)CC2)c(Cl)c1` [Example 351, N-[4-[(4-aminocyclohexyl)carbamoyl]-3-chlorophenyl]-5-[1-(cyanomethyl)-3-(trifluoromethyl)pyrazol-4-yl]-1-methylimidazole-2-carboxamide;2,2,2-trifluoroacetic acid], the IC90 turned out to be 453 nM.

For the compound `Cn1c(-c2cn(CCC3CC3)nc2C(F)(F)F)cnc1C(=O)Nc1ccc(C(=O)N2CCN(C(=O)C3CCNCC3)CC2)c(Cl)c1` [Example 352, N-(3-chloro-4-(4-(piperidine-4-carbonyl)piperazine-1-carbonyl)phenyl)-5-(1-(2-cyclopropylethyl)-3-(trifluoromethyl)-1H-pyrazol-4-yl)-1-methyl-1H-imidazole-2-carboxamide hydrochloride], the IC90 was 458 nM.

Consider `Cc1cc(NC(=O)c2ncc(-c3cn(CC(F)F)nc3C(F)(F)F)n2C)ccc1S(C)(=O)=NCCCN` (stereo not shown) [Example 353, N-[4-[N-(3-aminopropyl)-S-methyl-sulfonimidoyl]-3-methyl-phenyl]-5-[1-(2,2-difluoroethyl)-3-(trifluoromethyl)pyrazol-4-yl]-1-methyl-imidazole-2-carboxamide; formic acid], for which the IC90 is 462 nM.

For `CC1CN(C(=O)N[C@H]2C[C@@H](NC(=O)c3ccc(NC(=O)c4ncc(-c5cn(CC#N)nc5C(F)(F)F)n4C)cc3Cl)C2)CCN1` (stereo partly shown) [Example 354, N-[3-[[2-chloro-4-[[5-[1-(cyanomethyl)-3-(trifluoromethyl)pyrazol-4-yl]-1-methyl-imidazole-2-carbonyl]amino]benzoyl]amino]cyclobutyl]-3-methyl-piperazine-1-carboxamide; formic acid], the IC90 worked out at 463 nM.

With `Cn1c(-c2cn(CC#N)nc2C(F)(F)F)cnc1C(=O)Nc1ccc(C(=O)N2CCN(C(=O)[C@H]3C[C@H](N)C3)CC2)c(Cl)c1` [Example 355, N-[4-[4-(3-aminocyclobutanecarbonyl)piper-azine-1-carbonyl]-3-chlorophenyl]-5-[1-(cyanomethyl)-3-(trifluoromethyl)pyrazol-4-yl]-1-methylimidazole-2-carboxamide;trihydrochloride], the IC90 was determined as 464 nM.

Regarding `CCc1cc(NC(=O)c2ncc(-c3cn(CC(F)F)nc3C(F)(F)F)n2C)ccc1C(=O)NCCCCCN` [Example 356, N-(4-((5-aminopentyl)carbamoyl)-3-ethylphenyl)-5-(1-(2,2-difluoroethyl)-3-(trifluoromethyl)-1H-pyrazol-4-yl)-1-methyl-1H-imidazole-2-carboxamide hydrochloride], the IC90 was 466 nM.
